For test [1], the system named is hMSC. Put plainly: Alkaline phosphatase activity staining of hMSCs on SAM arrays. Format: cell-based, human. As to conditions: high GRGDSP density SAM spots, 7 days. The source says: In this SAM array approach, each spot was designed to contain the same total molar density (mol/cm^2) of peptide from spot to spot. Therefore, control over individual peptide density was achieved by mixing scrambled BR-BP and HPG-BP and mutant GRGESP (SEQ ID NO:19) peptides with functional BR-BP, HPG-BP or GRGDSP (SEQ ID NO:18) peptides, respectively. Therefore, in a typical SAM array, SAMs were locally formed within spots using an alkanethiolate mixture of 95% HS—C11-EG3-OH and 5% HS—C11-EG6-COOH to create substrates with a total of 5% carboxylate groups for peptide conjugation. Here, “X %” refers to the mole percent of alkanethiolate present during SAM formation and subsequently the approximate amount of an alkanethiolate present on the surface after SAM formation. To regulate the density of active peptide present in each spot, mutant and scramble versions of peptides were included during peptide conjugation. […] As mentioned previously, peptide concentrations were easily measured using UV/Vis since all peptides either contained residues that absorbed strongly at 280 nm, or were engineered to contain tryptophan residues in the poly-glycine tail. […]

The subject of test [2] is hMSC. Put plainly: hMSC spreading (projected cell area) on SAM array spots presenting GRGDSP. The class given is cell-based, human. As to conditions: hMSCs. On the procedure: For cell assays on SAM arrays, HUVECs or hMSCs were removed from plastic culture plates using a 0.05% trypsin solution, resuspended in media, and seeded onto SAM arrays in sterile polystyrene Petri dishes. After allowing cells to attach for ˜1 hour in a humidified incubator at 37° C. and 5% CO2, arrays were dipped in warm media to remove loosely attached cells and then transferred to a rectangular multidish (Thermo Scientific/Nunc, Rochester, N.Y.) with warm media and imaged ˜4 hours later serving as “0 hr.” For the initial time point and subsequent time-lapse imaging, arrays were placed on an incubated stage and each array spot was imaged every 15 minutes for 72 hours. […]
Relative cell attachment at 0 hrs was quantified by counting the number of attached cells per spot and normalizing cell numbers to maximal attachment conditions. Normalized cell number was calculated by dividing the number of cells per spot at 72 hours (C72) to the cell number observed on the same spot at 0 hrs (C0). Relative proliferation was determined by dividing normalized cell numbers at 72 hours by the maximum average normalized cell number observed across GRGDSP density conditions. Similarly, relative spreading was determined by dividing projected cell areas to the maximum average projected cell area observed across GRGDSP density conditions. […]

Regarding GRGDSP, in the test with hMSC [1], the “staining for alkaline phosphatase activity” value is recorded as “increased staining for alkaline phosphatase activity”. The “maximal projected cell area” value in the test on hMSC [2] (24 hrs, SAM spots with 1.6% and 5% GRGDSP) was “greater than 4000 μm^2”. The “change in projected cell area from 24 to 72 hrs” value in the test with hMSC [2] (across several GRGDSP densities) is “slight decreases”.

These data come from US8642516B2, “Chemically-defined arrays for screening cell-substrate interactions” (Wisconsin Alumni Research Foundation, priority 2012, dated 2014).
